Each structure is given as a SMILES string.

We go through one molecule from US20230321246A1, “HIGH-STRENGTH ORAL TAXANE COMPOSITIONS AND METHODS” (ATHENEX HK INNOVATIVE LIMITED, priority 2017, published 2023).

A short description of data set [1]: in vivo. To be noted: male, beagle, dog, iv, 2 mg/kg.
Data set [2] can be described thus: in vivo. To be noted: male, beagle, dog, iv, 2 mg/kg. This is another data set of the same source.

Broadly, the AUC(0-inf) is total exposure, with the tail of the curve extrapolated. Low values mean less exposure, high ones more exposure. By AUC(0-t) is commonly meant the area under the concentration-time curve up to a stated or last time point. Low readings indicate low exposure, high ones high exposure. Broadly, the Cmax is the peak of the concentration-time curve. For orientation: MRT means the average time that molecules of a dose stay in the body. The Tmax is the time at which the peak concentration occurs. As usually defined, the Vd is the apparent volume that relates the amount in the body to the concentration in plasma or blood. A word on the clearance: it is the rate of elimination divided by the concentration. As usually defined, the MRT last is a mean duration of stay, worked out from the concentration-time curve. In general, half-life refers to how long it takes for the measured level to halve. A lower half-life goes with rapid decline. In “in vivo [1]”, `CC(=O)O[C@H]1C(=O)[C@@]2(C)[C@H]([C@H](OC(=O)c3ccccc3)[C@]3(O)C[C@H](OC(=O)[C@H](O)[C@@H](NC(=O)c4ccccc4)c4ccccc4)C(C)=C1C3(C)C)[C@]1(OC(C)=O)CO[C@@H]1C[C@@H]2O` [Paclitaxel, paclitaxel] returned an AUC(0-inf) of 1950 ng·h/mL, an AUC(0-t) of 1840 ng·h/mL, a Cmax of 1690 ng/mL and an MRT of 3.67 h. In addition, in the data set “in vivo [1]”, the time to peak (Tmax) turned out to be 1 h, the distribution volume (Vd) was determined as 6.59 L/kg and the clearance was 19.3 mL/min/kg. In addition, in “in vivo [2]”, the AUC(0-inf) worked out at 768 ng·h/mL, the exposure AUC(0-t) is 701 ng·h/mL, the peak level (Cmax) was 811 ng/mL and the MRT last worked out at 5.26 h. Moreover, in “in vivo [2]”, the Tmax came to 0 h, the Vd was 2.1 L/kg, the clearance is 44.3 mL/min/kg and the half-life was 7.57 h.
